Measured values as given in paper PMC10056636, “3-Amino-Substituted Analogues of Fusidic Acid as Membrane-Active Antibacterial Compounds” (Membranes, 2023).
≈ marks a conversion by molar mass, not a printed value. Where two headings read alike, the source gives them in different places.

What was measured:
[1] = system: Staphylococcus aureus (ATCC 43300) (MRSA); test: Antibacterial whole-cell growth inhibition (MIC, CO-ADD); format: cell-based; conditions: for primary screening: antimicrobial activity: S. aureus (MRSA), primary screen at 32 μg/mL
Procedure: (§1) Antibacterial screening was carried out by the serial dilution method. All bacteria were cultured in the cation-adjusted Mueller Hinton broth (CAMHB) at 37 °C overnight. A sample of each culture was then diluted 40-fold in fresh broth and incubated at 37 °C for 1.5–3 h. The resultant mid-log phase cultures were diluted (CFU/mL measured by OD600) and then added into each well containing a test compound, giving a cell density of 5 × 10^5 CFU/mL and a total volume of 50 µL. All the plates were covered and incubated at 37 °C for 18 h without shaking.
(§2) Inhibition of bacterial growth was determined by measuring the absorbance at 600 nm (OD600) with a Tecan M1000 Pro monochromator plate reader. […]

[2] = in vitro; format: cell-based, human; conditions: human, CC50
Procedure: (§3) HEK293 cells were counted manually in a Neubauer hemocytometer and then plated in 384-well plates containing the test compounds to give a density of 5000 cells per well in a final volume of 50 µL. DMEM supplemented with 10% FBS was used as the growth medium, and the cells were incubated together with the compounds for 20 h at 37 °C in 5% CO2.
(§4) The cytotoxicity (or cell viability) was measured by fluorescence, ex: 560/10 nm, em: 590/10 nm (F560/590), after addition of 5 µL of 25 µg/mL resazurin (2.3 µg/mL final concentration) and after incubation for further 3 h at 37 °C in 5% CO2. The fluorescence intensity was measured using a Tecan M1000 Pro monochromator plate reader with automatic gain control. The CC50 (50% cytotoxicity concentration) values were calculated by curve fitting of inhibition vs. log(concentration) using a sigmoidal dose–response function, with variable fitting values for bottom, top, and slope. In addition, the maximal percentage of cytotoxicity is reported as DMax, indicating any compounds with partial cytotoxicity. The curve fitting was implemented using Pipeline Pilot’s dose–response component. The results were similar to those obtained by other curve-fitting tools, such as GraphPad’s Prism and IDBS’s XlFit. Any value with > indicated samples with no activity (low DMax value) or samples with CC50 values above the maximum tested concentration (higher DMax value).
(§5) In addition, samples were flagged as partially cytotoxic if DMax ≥ 50%, even for CC50 > the maximum tested concentration.
(§6) Tamoxifen served as a positive cytotoxicity standard. Melittin was used as a positive hemolytic standard.

[3] = system: human embryonic kidney cell line HEK293 (ATCC CRL-1573); test: in vitro; format: cell-based; conditions: for CC50: human, 20 h
Procedure: as §3, §4, §5, §6

[4] = Hemolysis assay; format: cell-based, human; conditions: for hemolysis at 1 h: human, Dmax (maximal percentage of hemolysis)
Procedure: (§7) Human whole blood was washed three times with 3 volumes of 0.9% NaCl and then resuspended in the same medium to a concentration of 0.5 × 10^8 cells/mL, as determined by manual cell count in a Neubauer hemocytometer. The washed cells were then added to 384-well plates containing the test compounds to a final volume of 50 µL. After shaking on a plate shaker for 10 min, the plates were incubated for 1 h at 37 °C. After incubation, the plates were centrifuged at 1000× g for 10 min to pellet the cells and debris; 25 µL of the supernatant was then transferred to a polystyrene 384-well assay plate.
(§8) Hemolysis was monitored by measuring the supernatant absorbance at […] (OD405). The absorbance was measured using a Tecan M1000 Pro monochromator plate reader. HC10 and HC50 (10% and 50% hemolysis concentrations, respectively) were calculated by curve fitting of inhibition vs. log(concentration) using a sigmoidal dose–response function with variable fitting values for top, bottom, and slope. In addition, the maximal percentage of hemolysis is reported as DMax, indicating any compounds with partial hemolysis. The curve fitting was implemented using Pipeline Pilot’s dose–response component. […] Any value with > indicated sample with no activity (low DMax value) or samples with HC10 values above the maximum tested concentration (higher DMax value).
(§9) In addition, samples were flagged as partially hemolytic if DMax ≥ 50%, even for HC10 > the maximum tested concentration. […]

[5] = system: human red blood cells; test: Hemolysis assay; format: cell-based; conditions: human, 1 h
Procedure: as §7, §8, §9

[6] = system: Cryptococcus neoformans (ATCC 208821); test: Antifungal growth inhibition (MIC, CO-ADD); conditions: for MIC: inhibition ≥70%, two replicates per cell; for primary screening: growth inhibition: primary screen at 32 μg/mL
Procedure: Antimicrobial, cytotoxicity, and hemolytic activity screening of the synthesized derivatives was carried out in the CO-ADD (The Community for Antimicrobial Drug Discovery) (http://www.co-add.org, accessed on 24 November 2020) and included analysis for antibacterial properties, cytotoxicity, and hemolytic activity.
The hit confirmation test included five bacteria, Escherichia coli (ATCC 25922), Klebsiella pneumoniae (ATCC 700603), Acinetobacter baumannii (ATCC 19606), Pseudomonas aeruginosa (ATCC 27853), and Staphylococcus aureus (ATCC 43300), and two fungi, Candida albicans (ATCC 90028) and Cryptococcus neoformans (ATCC 208821). […] The compounds were also screened for hemolysis of human red blood cells (human whole blood, strain ARCBS 5400 00150).
Samples were prepared in DMSO and water to a final testing concentration of 32 µg/mL or 20 µM (unless otherwise indicated in the data sheet) and serially diluted twofold up to 8 times. Each sample concentration was prepared in 384-well plates: non-binding surface plate (NBS; Corning 3640) for each bacterial/fungal strain, tissue-culture treated (TC-treated; Corning 3712/3764) black for mammalian cell types and polypropylene 384-well plates (PP; Corning 3657) for hemolysis assays. The final DMSO concentration was maintained to a maximum of 0.5%. All sample preparation procedures were performed using liquid-handling robots. All screening was performed as two replica (n = 2), with both replicas on different assay plates, but from single plating and performed in a single screening experiment (microbial incubation). In addition, two values are used as quality controls for individual plates: Z′-Factor [1 − (3* (sd(NegCtrl) + sd(PosCtrl))/(average(PosCtrl)-average(NegCtrl)))] and standard antibiotic controls at different concentrations (>MIC and <MIC).
Fungi strains were cultured for 3 days on yeast extract-peptone dextrose (YPD) agar at 30 °C. A yeast suspension of 1 × 10^6 to 5 × 10^6 CFU/mL (as determined by OD530) was prepared from five colonies. The suspension was subsequently diluted and added to each well containing a test compound, giving a final cell density of fungi suspension of 2.5 × 10^3 CFU/mL and a total volume of 50 µL. All plates were covered and incubated at 35 °C for 36 h without shaking.
The absorbance was measured using a Biotek Multiflo Synergy HTX plate reader. In both cases, the percentage of growth inhibition was calculated for each well, using the negative control (media only) and positive control (fungi without inhibitors) in the same plate. […] In addition, the maximal percentage of growth inhibition is reported as DMax, indicating any compounds with marginal activity.
Fluconazole was used as a positive fungal inhibitor standard for C. albicans and C. neoformans. […] The quality control (QC) of the assays was performed using Z′-factors calculated from the negative (media only) and positive controls (bacterial, fungal, or cell culture without inhibitor) and the standards.

[7] = system: Acinetobacter baumannii (ATCC 19606); test: Antibacterial whole-cell growth inhibition (MIC, CO-ADD); format: cell-based; conditions: A. baumannii, two replicates per cell
Procedure: as §1, §2

[8] = system: Escherichia coli (ATCC 25922); test: as above; format: cell-based; conditions: E. coli, two replicates per cell
Procedure: as §1, §2

[9] = system: Pseudomonas aeruginosa (ATCC 27853); test: as above; format: cell-based; conditions: P. aeruginosa, two replicates per cell
Procedure: as §1, §2

[10] = system: Candida albicans (ATCC 90028); test: Antifungal growth inhibition (MIC, CO-ADD); format: cell-based
[11] = Staphylococcus aureus, S. aureus (MRSA) ATCC 43300, inhibition ≥80%, two replicates (n = 2), read-out: MIC
[12] = S. aureus (MRSA) ATCC 43300, inhibition ≥80%, two replicates (n = 2)
[13] = Cryptococcus neoformans, ATCC208821, C. neoformans
[14] = Acinetobacter baumannii, ATCC19606, read-out: MIC
[15] = Escherichia coli, ATCC25922, read-out: MIC
[16] = Pseudomonas aeruginosa, ATCC27853, read-out: MIC
[17] = C. albicans, inhibition ≥80%, two replicates per cell
[18] = Candida albicans, ATCC90028, C. albicans, inhibition ≥80%, two replicates per cell, read-out: MIC

Molecule	primary screening: antimicrobial activity [1]	MIC [1, 11] [µg/mL]	CC50 at 20 h [2] [µg/mL]	CC50 [3]	hemolysis at 1 h [4] [%]	Dmax (maximal percentage of hemolysis) [5] [%]	HC50 [5]	MIC [1, 12] [µg/mL]	also measured
CN[C@H](CC(C)C)C(=O)N[C@H]1C(=O)N[C@@H](CC(N)=O)C(=O)N[C@H]2C(=O)N[C@H]3C(=O)N[C@H](C(=O)N[C@H](C(=O)O)c4cc(O)cc(O)c4-c4cc3ccc4O)[C@H](O)c3ccc(c(Cl)c3)Oc3cc2cc(c3O[C@@H]2O[C@H](CO)[C@@H](O)[C@H](O)[C@H]2O[C@H]2C[C@](C)(N)[C@H](O)[C@H](C)O2)Oc2ccc(cc2Cl)[C@H]1O [Vancomycin, reference compound]	–	–	–	–	–	–	–	–	MIC ([1]; Staphylococcus aureus): 1 µg/mL (≈ 0.69 µM)
CC(=O)O[C@H]1C[C@@]2(C)[C@@H](CC(=O)[C@H]3[C@@]4(C)CC[C@H](N5CCCC5)[C@@H](C)[C@@H]4CC[C@@]32C)/C1=C(\CCC=C(C)C)C(=O)O [Compound 7]	showed antimicrobial activity	8 (≈ 14.1 µM)	> 32	>32 >32 µg/mL	2.3	2.6	>32 >32 µg/mL	–	–
CC[C@H](C)[C@H](NC(=O)CN)C(=O)NCC(=O)N[C@@H](C)C(=O)N[C@H](C(=O)N[C@@H](CC(C)C)C(=O)N[C@@H](CCCCN)C(=O)N[C@H](C(=O)N[C@@H](CC(C)C)C(=O)N[C@H](C(=O)N[C@H](C(=O)NCC(=O)N[C@@H](CC(C)C)C(=O)N1CCC[C@H]1C(=O)N[C@@H](C)C(=O)N[C@@H](CC(C)C)C(=O)N[C@H](C(=O)N[C@@H](CO)C(=O)N[C@@H](Cc1c[nH]c2ccccc12)C(=O)N[C@H](C(=O)N[C@@H](CCCCN)C(=O)N[C@@H](CCCNC(=N)N)C(=O)N[C@@H](CCCCN)C(=O)N[C@@H](CCCNC(=N)N)C(=O)N[C@@H](CCC(N)=O)C(=O)N[C@@H](CCC(N)=O)C(N)=O)[C@@H](C)CC)[C@@H](C)CC)[C@@H](C)O)[C@@H](C)O)C(C)C)C(C)C [Melittin, reference compound]	–	–	–	–	–	–	–	–	hemolysis ([4]; human erythrocytes, two replicates per cell, read-out: Dmax (maximal percentage of hemolysis)): 50%
COC(=O)/C(CCC=C(C)C)=C1\[C@@H](OC(C)=O)C[C@@]2(C)[C@H]1C[C@@H](O)[C@H]1[C@@]3(C)CC[C@H](NCc4ccccc4)[C@@H](C)[C@@H]3CC[C@@]12C [Compound 18]	showed antimicrobial activity	16 (≈ 25.8 µM)	17.8 (≈ 28.7 µM)	17.5 µg/mL (≈ 28.2 µM)	–	–	>32 >32 µg/mL	16 (≈ 25.8 µM)	MIC ([6]; C. neoformans): 32 µg/mL (≈ 51.6 µM); primary screening: growth inhibition ([6]; C. neoformans): inhibited the growth; MIC [6, 13]: 32 µg/mL (≈ 51.6 µM)
CC(=O)O[C@H]1C[C@@]2(C)[C@@H](C[C@@H](O)[C@H]3[C@@]4(C)CC[C@H](NCCCNCCCCN)[C@@H](C)[C@@H]4CC[C@@]32C)/C1=C(\CCC=C(C)C)C(=O)O [Compound 19]	–	–	> 32	>32 >32 µg/mL	5.5	5.3	>32 >32 µg/mL	32 (≈ 49.7 µM)	MIC [7]: >32 >32 µg/mL; MIC [7, 14]: > 32 µg/mL; MIC [8]: >32 >32 µg/mL; MIC [8, 15]: > 32 µg/mL; MIC [9]: >32 >32 µg/mL; MIC [9, 16]: > 32 µg/mL; MIC [10, 17]: >32 >32 µg/mL; MIC [10, 18]: > 32 µg/mL
CC/C(=C(\c1ccccc1)c1ccc(OCCN(C)C)cc1)c1ccccc1 [Tamoxifen, reference compound]	–	–	9 (≈ 24.2 µM)	–	–	–	–	–	Dmax (maximal percentage of cytotoxicity) [3]: 50%
Colistin [reference compound]	–	–	–	–	–	–	–	–	MIC [7]: 0.25 µg/mL; MIC [8]: 0.125 µg/mL; MIC [9]: 0.25 µg/mL
CCCCN[C@H]1CC[C@@]2(C)[C@@H](CC[C@@]3(C)[C@H]2[C@H](O)C[C@H]2/C(=C(\CCC=C(C)C)C(=O)OC)[C@@H](OC(C)=O)C[C@@]23C)[C@@H]1C [Compound 14]	showed antimicrobial activity	32 (≈ 54.6 µM)	26 (≈ 44.4 µM)	23.8 µg/mL (≈ 40.6 µM)	3.4	3.6	>32 >32 µg/mL	32 (≈ 54.6 µM)	–
CC(=O)O[C@H]1C[C@@]2(C)[C@@H](CC(=O)[C@H]3[C@@]4(C)CC[C@H](NCc5ccccc5)[C@@H](C)[C@@H]4CC[C@@]32C)/C1=C(\CCC=C(C)C)C(=O)O [Compound 9]	showed antimicrobial activity	8 (≈ 13.2 µM)	> 32	>32 >32 µg/mL	3.7	2.3	>32 >32 µg/mL	–	–
OC(Cn1cncn1)(Cn1cncn1)c1ccc(F)cc1F [Fluconazole, reference compound]	–	–	–	–	–	–	–	–	MIC ([10]; Candida albicans, ATCC90028): 0.125 µg/mL (≈ 0.408 µM); MIC [6, 13]: 8 µg/mL (≈ 26.1 µM)
CC(=O)O[C@H]1C[C@@]2(C)[C@@H](CC(=O)[C@H]3[C@@]4(C)CCC(=O)[C@@H](C)[C@@H]4CC[C@@]32C)/C1=C(\CCC=C(C)C)C(=O)O [Compound 1]	showed antimicrobial activity	8 (≈ 15.6 µM)	> 32	>32 >32 µg/mL	7.3	10.6	>32 >32 µg/mL	–	–
CC(=O)O[C@H]1C[C@@]2(C)[C@@H](C[C@@H](O)[C@H]3[C@@]4(C)CC[C@H](NCCCNCCCCNCCCN)[C@@H](C)[C@@H]4CC[C@@]32C)/C1=C(\CCC=C(C)C)C(=O)O [Compound 21]	–	2 to 8 (≈ 2.85 to 11.4 µM)	24.2 (≈ 34.5 µM)	> 32 µg/mL	8.7	6.4	>32 >32 µg/mL	–	MIC [7]: 32 µg/mL (≈ 45.6 µM); MIC [7, 14]: 32 µg/mL (≈ 45.6 µM); MIC [8]: 32 µg/mL (≈ 45.6 µM); MIC [8, 15]: 32 µg/mL (≈ 45.6 µM); MIC [9]: 32 µg/mL (≈ 45.6 µM); MIC [9, 16]: 32 µg/mL (≈ 45.6 µM); MIC [10, 17]: 32 µg/mL (≈ 45.6 µM); MIC [10, 18]: 32 µg/mL (≈ 45.6 µM)
COC(=O)/C(CCC=C(C)C)=C1\[C@@H](OC(C)=O)C[C@@]2(C)[C@H]1C[C@@H](O)[C@H]1[C@@]3(C)CC[C@H](NCCN)[C@@H](C)[C@@H]3CC[C@@]12C [Compound 12]	showed antimicrobial activity	32 (≈ 55.9 µM)	7.77 (≈ 13.6 µM)	13.2 µg/mL (≈ 23 µM)	34.8	27.8	>32 >32 µg/mL	32 (≈ 55.9 µM)	MIC ([6]; C. neoformans): 16 µg/mL (≈ 27.9 µM); primary screening: growth inhibition ([6]; C. neoformans): inhibited the growth; MIC [6, 13]: 16 µg/mL (≈ 27.9 µM)
